Assay results as given in ChEMBL document CHEMBL1201862, “PubChem BioAssay data set” (2004).
Calls of active or inactive are those of the source.

Key:
HeLa = experiment: HeLa cell cytotoxicity, dose response, cytotoxicity control for MITF activator project, CellTiter-Glo luminescence, cherry-pick samples (AID 540259); assay type: functional, cell-based; conditions: Homo sapiens
CAAX prenyl protease 2 [1] = biological target: CAAX prenyl protease 2 (Homo sapiens, UniProt Q9Y256); experiment: human Rce1 protease inhibitors, dose response, biochemical, yeast membranes, quenched-peptide fluorescence, cherry-pick (AID 588849)
CAAX prenyl protease 2 (Homo sapiens, UniProt Q9Y256), sequence (Q9Y256 whole entry): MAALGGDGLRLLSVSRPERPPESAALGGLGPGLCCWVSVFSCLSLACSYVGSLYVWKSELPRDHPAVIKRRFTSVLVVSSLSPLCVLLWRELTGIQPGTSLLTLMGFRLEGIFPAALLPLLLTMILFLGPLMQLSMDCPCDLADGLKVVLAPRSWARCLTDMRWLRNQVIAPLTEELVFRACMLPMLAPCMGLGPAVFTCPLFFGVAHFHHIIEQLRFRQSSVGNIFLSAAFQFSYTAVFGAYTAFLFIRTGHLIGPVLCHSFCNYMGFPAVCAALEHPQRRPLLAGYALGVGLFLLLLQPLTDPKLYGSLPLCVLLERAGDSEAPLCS

Trypsin = Trypsin (Sus scrofa, UniProt P00761); experiment: porcine trypsin inhibitors, dose response, selectivity assay for Rce1 protease inhibitor project, biochemical, quenched peptide fluorescence, cherry-pick (AID 488789)
Trypsin, sequence (P00761 whole entry): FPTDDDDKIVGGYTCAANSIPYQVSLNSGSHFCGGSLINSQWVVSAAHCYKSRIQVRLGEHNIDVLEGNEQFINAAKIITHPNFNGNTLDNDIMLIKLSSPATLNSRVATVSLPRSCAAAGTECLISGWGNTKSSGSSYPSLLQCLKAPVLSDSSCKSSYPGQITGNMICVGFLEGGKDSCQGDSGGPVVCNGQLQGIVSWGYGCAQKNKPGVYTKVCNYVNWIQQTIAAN

CAAX prenyl protease 2 [2] = biological target: T1, CAAX prenyl protease 2 (Saccharomyces cerevisiae S288c, UniProt Q03530); assay type: biochemical
T1 sequence (Q03530 whole entry): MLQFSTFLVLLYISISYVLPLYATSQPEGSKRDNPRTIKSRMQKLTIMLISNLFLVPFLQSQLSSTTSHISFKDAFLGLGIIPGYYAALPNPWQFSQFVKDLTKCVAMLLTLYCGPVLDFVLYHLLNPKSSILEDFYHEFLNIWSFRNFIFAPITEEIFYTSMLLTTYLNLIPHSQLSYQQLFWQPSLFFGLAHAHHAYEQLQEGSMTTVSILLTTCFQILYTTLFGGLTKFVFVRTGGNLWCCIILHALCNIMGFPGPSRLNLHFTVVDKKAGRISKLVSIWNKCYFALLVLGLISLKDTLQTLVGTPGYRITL

Caspase-6 = biological target: T2, Caspase-6 (Homo sapiens, UniProt P55212); experiment: human caspase-6 inhibitors, dose response, biochemical, VEID-R110 fluorescence, cherry-pick (AID 720632)
T2 sequence (P55212 whole entry): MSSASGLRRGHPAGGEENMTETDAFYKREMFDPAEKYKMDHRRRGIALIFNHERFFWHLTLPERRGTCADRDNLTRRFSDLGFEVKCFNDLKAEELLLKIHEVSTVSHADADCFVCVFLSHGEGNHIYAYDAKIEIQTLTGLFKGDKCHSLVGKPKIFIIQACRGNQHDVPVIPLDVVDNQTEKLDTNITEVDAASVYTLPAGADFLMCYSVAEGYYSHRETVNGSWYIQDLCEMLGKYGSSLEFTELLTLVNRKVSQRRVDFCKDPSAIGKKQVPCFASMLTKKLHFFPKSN

[3] = biological target: Beta-2 adrenergic receptor (Homo sapiens, UniProt P07550); experiment: beta2AR agonists driving receptor internalization, dose response, cell-based, FAP fluorogen, flow cytometry, cherry pick 1 (AID 588763); assay type: functional
Beta-2 adrenergic receptor, sequence (P07550 whole entry): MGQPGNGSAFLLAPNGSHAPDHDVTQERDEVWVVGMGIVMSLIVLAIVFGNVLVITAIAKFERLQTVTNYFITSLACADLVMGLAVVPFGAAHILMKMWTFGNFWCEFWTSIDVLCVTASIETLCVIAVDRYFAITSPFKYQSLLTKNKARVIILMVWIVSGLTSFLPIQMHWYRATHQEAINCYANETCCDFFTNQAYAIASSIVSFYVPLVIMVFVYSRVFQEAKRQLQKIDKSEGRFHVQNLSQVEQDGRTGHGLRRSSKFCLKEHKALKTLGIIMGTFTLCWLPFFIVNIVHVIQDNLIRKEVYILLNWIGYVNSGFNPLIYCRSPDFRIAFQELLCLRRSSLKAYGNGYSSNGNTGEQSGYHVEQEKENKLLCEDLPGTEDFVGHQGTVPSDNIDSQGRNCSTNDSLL

[4] = growth suppression of beta-catenin-knockout colon cells, dose response, cell-based, HCT116, human colon tumor (AID 1045); assay type: functional;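 note: HCT116 colon tumor cells with beta catenin knocked out; cells exposed to compound for 60 hours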
[5] = cytotoxicity toward DRD oncogenic fibroblasts, dose response, cell-based, non-viral oncogenic, luminescence (AID 1934); assay type: functional; conditions: Homo sapiens
[6] = growth suppression of PTEN-null colon cells, dose response, cell-based, HCT116 PTEN knockout (AID 1047); assay type: functional;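 note: HCT116 colon tumor cells with PTEN knocked out; cells exposed to compound for 60 hours before readout; potency for loss of cell viability measured by luminescence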
HEK293 [7] = experiment: cells; conditions: Homo sapiens
BJ [8] = experiment: cells; assay type: functional, cell-based; conditions: Homo sapiens
BJ [9] = experiment: cytotoxicity toward BJ-TERT-LT-ST fibroblasts, dose response, cell-based, RAS-independent, luminescence (AID 1935); assay type: functional; conditions: Homo sapiens;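 note: BJ fibroblasts immortalized with TERT plus LT and ST oncogenes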
[10] = biological target: T3, Heat shock factor protein 1 (Mus musculus, UniProt P38532); experiment: HSF1 potentiators in luciferase reporter cells, confirmation, cell-based, NIH3T3, luminescence, dose retest (AID 435004); assay type: functional;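 note: stress induced by proteasome inhibitor MG132 added 30 min after compound; luciferase reporter driven by HSF1 response element in NIH3T3 cells; actives raise luminescence as potentiators of the MG132 stress response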
T3 sequence (P38532 whole entry): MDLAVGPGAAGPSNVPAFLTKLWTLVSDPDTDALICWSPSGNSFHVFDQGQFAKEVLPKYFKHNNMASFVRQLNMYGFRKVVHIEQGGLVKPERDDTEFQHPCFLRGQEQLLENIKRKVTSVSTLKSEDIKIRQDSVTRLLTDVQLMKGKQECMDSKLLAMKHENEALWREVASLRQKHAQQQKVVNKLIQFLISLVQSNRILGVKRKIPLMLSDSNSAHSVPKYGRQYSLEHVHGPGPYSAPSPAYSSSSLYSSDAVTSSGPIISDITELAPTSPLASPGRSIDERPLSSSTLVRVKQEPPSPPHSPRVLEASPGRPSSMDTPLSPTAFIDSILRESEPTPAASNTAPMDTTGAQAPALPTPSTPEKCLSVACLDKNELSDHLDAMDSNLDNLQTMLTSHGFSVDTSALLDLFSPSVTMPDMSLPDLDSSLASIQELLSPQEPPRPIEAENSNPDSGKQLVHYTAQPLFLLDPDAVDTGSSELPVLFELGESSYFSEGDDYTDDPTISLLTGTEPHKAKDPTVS

[11] = biological target: T4, Microphthalmia-associated transcription factor (Homo sapiens, UniProt O75030); experiment: TRPM1 promoter luciferase signal decrease, dose response, MITF inhibitor project, cell-based, SK-MEL-5, cherry-picked, set 3 (AID 493073); assay type: functional
T4 sequence (O75030 whole entry): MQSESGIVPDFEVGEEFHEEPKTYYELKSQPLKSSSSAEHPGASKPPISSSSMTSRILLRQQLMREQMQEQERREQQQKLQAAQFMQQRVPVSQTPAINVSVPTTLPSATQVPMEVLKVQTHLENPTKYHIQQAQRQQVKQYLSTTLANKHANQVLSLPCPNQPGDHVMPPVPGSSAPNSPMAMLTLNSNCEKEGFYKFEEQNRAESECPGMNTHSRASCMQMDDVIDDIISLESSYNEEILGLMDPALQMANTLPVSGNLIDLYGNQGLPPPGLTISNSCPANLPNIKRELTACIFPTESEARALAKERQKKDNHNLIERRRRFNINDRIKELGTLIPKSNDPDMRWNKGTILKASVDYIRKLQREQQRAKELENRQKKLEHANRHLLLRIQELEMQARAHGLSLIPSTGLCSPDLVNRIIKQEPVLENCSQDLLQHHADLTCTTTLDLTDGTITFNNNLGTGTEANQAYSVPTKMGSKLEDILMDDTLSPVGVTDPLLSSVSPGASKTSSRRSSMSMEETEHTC

cells = assay type: functional
[12] = THP-1 cell cytotoxicity, dose response, cytotoxicity control for non-replicating M. tuberculosis project (AID 489025); assay type: functional
Vero = experiment: cells; assay type: functional, cell-based; conditions: Chlorocebus sabaeus
[13] = Vero E6 cell cytotoxicity, dose response, cytotoxicity control for non-replicating M. tuberculosis project, secondary assay (AID 492998); assay type: functional, VeroE6; conditions: Vero C1008
HEK293 [14] = experiment: cells; conditions: Homo sapiens; remark: listed apart in the source
BJ [15] = experiment: cytotoxicity toward BJ-TERT fibroblasts, dose response, cell-based, RAS-independent, luminescence (AID 1933); assay type: functional; conditions: Homo sapiens
[16] = biological target: 5-hydroxytryptamine receptor 5A (Homo sapiens, UniProt P47898); experiment: Counterscreen for agonists of OPRM1-OPRD1 heterodimerization: luminescence-based cell-based high throughput dose response assay to identify agonists of 5-hydroxytryptamine (serotonin) 5A receptor (HTR5A). [Related pubchem assays (depositor defined):AID504326, AID504355, AID504692, AID504904, AID504905]; assay type: functional
5-hydroxytryptamine receptor 5A, sequence (P47898 whole entry): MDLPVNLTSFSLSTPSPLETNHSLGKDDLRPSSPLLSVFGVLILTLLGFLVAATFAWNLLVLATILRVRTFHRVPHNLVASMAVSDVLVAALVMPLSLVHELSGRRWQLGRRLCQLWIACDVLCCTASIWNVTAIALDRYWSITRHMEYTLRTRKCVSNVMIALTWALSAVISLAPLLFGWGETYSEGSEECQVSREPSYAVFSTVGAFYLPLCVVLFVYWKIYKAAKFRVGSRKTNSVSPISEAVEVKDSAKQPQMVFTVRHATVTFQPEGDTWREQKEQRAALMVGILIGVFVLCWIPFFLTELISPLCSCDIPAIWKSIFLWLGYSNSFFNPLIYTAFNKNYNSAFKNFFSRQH

[17] = biological target: T5, Short transient receptor potential channel 4 (Mus musculus, UniProt Q9QUQ5); experiment: mouse TRPC4 channel activators, dose response, cell-based, HEK293 TRPC4/mu-opioid, Fluo-4 calcium (AID 434937); assay type: functional
T5 sequence (Q9QUQ5 whole entry): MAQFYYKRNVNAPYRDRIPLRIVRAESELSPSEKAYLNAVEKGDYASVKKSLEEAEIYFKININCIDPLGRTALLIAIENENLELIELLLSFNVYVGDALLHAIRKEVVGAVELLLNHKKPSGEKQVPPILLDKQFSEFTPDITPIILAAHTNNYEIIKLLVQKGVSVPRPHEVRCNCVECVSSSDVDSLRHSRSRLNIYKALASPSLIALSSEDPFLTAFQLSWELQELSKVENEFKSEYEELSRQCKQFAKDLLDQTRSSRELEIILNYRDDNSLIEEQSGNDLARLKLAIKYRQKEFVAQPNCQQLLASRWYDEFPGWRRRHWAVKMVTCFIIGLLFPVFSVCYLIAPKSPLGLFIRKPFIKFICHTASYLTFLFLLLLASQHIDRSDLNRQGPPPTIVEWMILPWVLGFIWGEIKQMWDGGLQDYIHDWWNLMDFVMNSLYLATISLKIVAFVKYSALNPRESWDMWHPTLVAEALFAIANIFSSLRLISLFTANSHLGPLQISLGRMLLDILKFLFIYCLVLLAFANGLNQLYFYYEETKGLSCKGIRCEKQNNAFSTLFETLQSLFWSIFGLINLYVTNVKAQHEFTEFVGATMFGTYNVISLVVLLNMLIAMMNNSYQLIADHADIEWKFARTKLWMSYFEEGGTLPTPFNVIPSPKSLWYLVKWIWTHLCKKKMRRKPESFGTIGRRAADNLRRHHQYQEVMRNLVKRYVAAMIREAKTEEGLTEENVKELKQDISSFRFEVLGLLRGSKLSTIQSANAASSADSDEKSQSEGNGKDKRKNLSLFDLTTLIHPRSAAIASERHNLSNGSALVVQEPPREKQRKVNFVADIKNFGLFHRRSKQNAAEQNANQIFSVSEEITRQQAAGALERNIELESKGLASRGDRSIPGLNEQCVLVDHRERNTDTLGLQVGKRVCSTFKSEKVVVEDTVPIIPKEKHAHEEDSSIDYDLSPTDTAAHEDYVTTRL

Mu-type opioid receptor = Mu-type opioid receptor (Homo sapiens, UniProt P35372); experiment: (§1) Counterscreen for agonists of heterodimerization of the mu 1 (OPRM1) and delta 1 (OPRD1) opioid receptors: Luminescence-based cell-based high throughput dose response assay to identify agonists of OPRM1 homodimerization.; assay type: functional
Mu-type opioid receptor, sequence (P35372 whole entry): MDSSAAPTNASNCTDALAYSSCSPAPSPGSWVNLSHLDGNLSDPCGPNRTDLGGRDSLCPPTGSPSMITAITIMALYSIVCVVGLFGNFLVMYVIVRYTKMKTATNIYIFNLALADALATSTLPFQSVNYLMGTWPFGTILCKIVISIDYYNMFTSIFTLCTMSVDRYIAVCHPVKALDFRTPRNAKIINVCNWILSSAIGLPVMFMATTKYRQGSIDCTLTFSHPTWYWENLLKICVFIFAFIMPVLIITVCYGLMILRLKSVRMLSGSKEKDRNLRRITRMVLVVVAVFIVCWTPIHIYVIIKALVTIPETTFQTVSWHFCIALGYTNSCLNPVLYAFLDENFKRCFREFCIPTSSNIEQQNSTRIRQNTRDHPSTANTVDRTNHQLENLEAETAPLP

[18] = biological target: Delta-type opioid receptor (Homo sapiens, UniProt P41143); experiment: as §1, with “of OPRD1” for “of OPRM1”, “homodimerization. [Related pubchem assays (depositor defined):AID504326, AID504355, AID504692, AID504904, AID504905]” for “homodimerization.”; assay type: functional
Delta-type opioid receptor, sequence (P41143 whole entry): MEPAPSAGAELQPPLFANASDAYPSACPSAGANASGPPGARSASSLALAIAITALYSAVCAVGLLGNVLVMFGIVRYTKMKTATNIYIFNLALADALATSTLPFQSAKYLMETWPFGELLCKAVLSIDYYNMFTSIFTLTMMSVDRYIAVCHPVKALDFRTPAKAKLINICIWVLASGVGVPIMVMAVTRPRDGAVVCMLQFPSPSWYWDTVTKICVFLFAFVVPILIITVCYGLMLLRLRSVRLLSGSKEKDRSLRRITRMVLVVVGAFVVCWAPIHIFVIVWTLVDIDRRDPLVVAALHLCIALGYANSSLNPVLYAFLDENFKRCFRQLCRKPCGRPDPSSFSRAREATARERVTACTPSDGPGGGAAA

In the case of CC1(C)CNC(=O)c2sc(NC(=O)c3ccccc3)nc2C1, the AC50 (HeLa) was 55 µM (active).

With Nc1ccc(Cc2ccc(N)c(C(=O)O)c2)cc1C(=O)O the AC50 (CAAX prenyl protease 2 [1]) was 2.25 µM (active), the AC50 (Trypsin) was 7.3 µM (active) and the AC50 (CAAX prenyl protease 2 [2]) was 32.3 µM (active). The AC50 (Caspase-6) was 37.8 µM (active).

For Cc1ccc(OCc2cc(C(=O)NCc3ccc(OC(F)(F)F)cc3)no2)cn1, the EC50 [3] was 0.792 µM (active).

With O=C1c2cc([N+](=O)[O-])cc3cc([N+](=O)[O-])cc(c23)C(=O)N1c1ccccn1 the EC50 [4] was 7.76 µM (active), the EC50 [5] was 11.2 µM (active) and the EC50 [6] was 9.92 µM (active). The EC50 (HEK293 [7]) was > 59.7 µM (inactive), the EC50 (BJ [8]) was 54.8 µM (active) and the EC50 (BJ [9]) was > 150 µM (inconclusive). For the same compound, the EC50 [10] was 13.7 µM (active), the AC50 [11] was 7.92 µM (active) and the IC50 (cells) was 3.43 µM (active). For the same compound, the CC50 [12] was 17.5 µM (active), the IC50 (Vero) was 16.3 µM (active) and the CC50 [13] was 15.2 µM (active). For the same compound, the AC50 (Caspase-6) was 15.3 µM (active), the EC50 (HEK293 [14]) was > 59.7 µM (inactive) and the EC50 (BJ [15]) was 37.1 µM (active).

With Cc1cccc(NC(S)=NCC(c2cccnc2)N(C)C)c1 (configuration not stated) the EC50 [16] was > 92.5 µM (inactive), the EC50 [17] was 0.0267 µM (active) and the EC50 (Mu-type opioid receptor) was 15.6 µM (inactive). The EC50 [18] was > 92.5 µM (inactive).

With Cc1ccc(CNC(=O)c2cc(-c3ccccc3)nn2CC2CC(c3cccc([N+](=O)[O-])c3)=NO2)cc1 (configuration not stated) the AC50 (CAAX prenyl protease 2 [1]) was 30 µM (active).

In the case of C/C(=N/OC(=O)CC(C)C)c1cc(-c2ccc(Cl)cc2)no1, the AC50 (HeLa) was 58.7 µM (active).
